Results reported in US5114918A, “Endothelin antagonistic cyclic pentapeptides” (Banyu Pharmaceutical Co., Ltd., priority 1989, dated 1992).
Values joined by “and” are separate entries in the source; they are usually repeats but may differ in a detail not shown here. Equal entries are not always repeated. Square brackets hold non-standard residues; d marks the D form. Peptide text beside a SMILES is read from it.

Key:
[1] = biological target: T1, endothelin receptor (membrane of smooth muscle tissue of porcine aorta) (Sus scrofa, UniProt Q29010); test: Endothelin binding inhibition test (125I-endothelin-1, porcine aorta smooth muscle membrane); conditions: 1.1 μM of the test compound, porcine aorta smooth muscle membrane, 25° C, 4 hours; for inhibition at 1.1 µM: read-out: 125I-endothelin-1 binding inhibition, Inhibition (%)
T1 construct: from tissue; host or cells: smooth muscle tissue of porcine aorta (membrane fraction)
T1 sequence (Q29010 21-427): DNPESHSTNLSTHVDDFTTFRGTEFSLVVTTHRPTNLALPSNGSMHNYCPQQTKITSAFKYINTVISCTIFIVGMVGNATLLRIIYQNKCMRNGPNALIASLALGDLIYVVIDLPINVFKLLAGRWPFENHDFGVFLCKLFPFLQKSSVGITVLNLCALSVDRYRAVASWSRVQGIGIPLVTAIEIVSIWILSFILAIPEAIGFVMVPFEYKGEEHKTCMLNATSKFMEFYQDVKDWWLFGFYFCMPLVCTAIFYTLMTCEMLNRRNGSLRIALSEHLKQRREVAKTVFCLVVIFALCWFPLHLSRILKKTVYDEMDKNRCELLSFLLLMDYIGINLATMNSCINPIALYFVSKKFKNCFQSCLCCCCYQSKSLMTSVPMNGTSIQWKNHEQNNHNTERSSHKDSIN
Method in brief: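 Porcine aortic smooth muscle membranes incubated with ^125I-endothelin-1 (12000-18000 cpm) and test compound at 1.1 μM final in Tris/HCl pH 7.4 with protease inhibitors and 0.1% BSA, 4 h at 25 °C. Filter-bound radioactivity counted, nonspecific binding defined with 0.2 μM endothelin-1; % binding inhibition in triplicate.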

[2] = tested on: isolated porcine coronary artery (endothelin-1-induced contraction); test: Activities against endothelin-induced contraction of isolated porcine coronary arteries; set-up: species or system pig; conditions: for shift of the concentration-response curve of endothelin-1: added 20 minutes prior to endothelin-1
Experimental: Activities against endothelin-induced contraction of isolated procine coronary arteries
The coronary artery of pig was extracted, and a spiral preparation having a width of 1 mm and a length of 10 mm was prepared therefrom. The preparation having the endothelial cells denuded, was hanged in a 5 ml organ bath filled wit a Krebs.Henseleit solution saturated with a gas mixture of 95% O2 and 5% CO2, and the change in the tension was isometrically measured and recorded.
(§1) Endothelin-1 was added into the organ bath in a cumulatively increasing manner, whereby the influence of the compound of the present invention to the concentration-response curve for endothelin-1 was examined. The compound of the present invention was added into the organ bath 20 minutes prior to the addition of endothelin-1.

[3] = tested on: male ddy mouse (endotoxin-induced body temperature lowering); test: Endotoxin shock: endotoxin-induced body temperature lowering in mice; type: in vivo; conditions: endotoxin 30 mg/kg i.v., compound 100 mg/kg i.p. 30 minutes prior to and 30 minutes subsequent to endotoxin
Experimental: (§2) Activities against an endotoxin shock
(§3) To a male ddy mouse, endotoxin (Lipopolysaccharide derived from E. coli 055:B5) dissolved in a 0.15% sodium hydrogencarbonate aqueous solution, was intravenously administered via the tail vein at a dose of 30 mg/kg, whereupon a distinct body temperature lowering effect was observed.

[4] = tested on: isolated guinea pig trachea (endothelin-1-induced contraction); test: Activities against endothelin-induced contraction of isolated guinea pig trachea; conditions: for shift of the concentration-response curve for endothelin-1: added 20 minutes prior to endothelin-1
Experimental: Activities aqainst endothelin-induced contraction of isolated guinea pig trachea
The trachea of a guinea pig was extracted, and the trachea was cut into rings to afford the preparation. A preparation having the endothelial cells denuded, was hanged in a 5 ml organ bath filled with a Krebs.Henseleit solution saturated with a gas mixture of 95% O2 and 5% CO2, and the change in the tension was isometrically measured and recorded.
as §1, with “manner, and” for “manner, whereby”, “for endothelin” for “for endothelin-1”

[5] = tested on: mice (endotoxin-induced mortality); test: Endotoxin shock: endotoxin-induced mortality in mice; type: in vivo, mouse; conditions: for Survived number/number of the tested animals / survival rate (%): compound 100 × 2 mg/kg i.p.
Experimental: as §2, §3
The intravenous administration of endotoxin via the tail vein at a high dose (100 mg/kg) killed mice in all cases (10/10) within 48 hours.

[6] = tested on: isolated porcine basilar artery (endothelin-1-induced contraction); test: Activities against endothelin-induced contraction of isolated porcine basilar artery; set-up: species or system pig; conditions: compound 2 μM
Experimental: Activities aqainst endothelin-induced contraction of isolated porcine basilar artery
The arteria basilaris of pig was extracted, and then a ring preparation with a width of 4 mm was prepared. After denuded the endothelial cells, the preparation was hanged in a 5 ml organ bath filled with a Krebs.Henseleit solution saturated with a gas mixture of 95% O2 and 5% CO2, and the change in the tension was isometrically measured and recorded.
as §1

[7] = tested on: isolated rat heart (endothelin-1-induced increase of perfusion pressure); test: Effects on the increased perfusion pressure induced by endothelin in isolated rat heart
Experimental: Effects on the increased perfusion pressure induced by endothelin in isolated rat heart
The heart of a male Sprague Dohrie (SD) rat was extracted, and the perfusion pressure was measured and recorded by a Langendorff's method. The perfusion pressure was evaluated on the basis that the state where a Krebs.Henseleit solution saturated with a gas mixture of 95% O2 and 5% CO2 was infused at a rate of 10 ml/min, was taken as a standard.
Endothelin-1 was cumulatively added to the perfusate, whereby the influence of the compound to the concentration-response curve for endothelin-1 was examined. The compound of the present invention which was dissolved in the perfusate had been infused from 20 minutes prior to the addition of endothelin-1 till just after finishing measurement of the concentration-response curve for endothelin-1.

[8] = 24 hr after endotoxin (100 mg/kg i.v.)
[9] = 48 hr after endotoxin (100 mg/kg i.v.)
[10] = 96 hr after endotoxin (100 mg/kg i.v.)

## CC(C)C[C@@H]1NC(=O)[C@@H](C(C)C)NC(=O)[C@H](C)NC(=O)[C@@H](CC(=O)O)NC(=O)[C@@H](Cc2c[nH]c3ccccc23)NC1=O [Example 12, cyclo(-DTrp-DAsp-Ala-DVal-Leu-)] (cyclo(A[dV]L[dW][dD]))
[1]
  inhibition at 1.1 µM: 75%
[2]; compound 3 μM
  effect on the maximum response to endothelin-1: did not affect the maximum response
  shift of the concentration-response curve of endothelin-1: remarkably shifted the concentration-response curves of endothelin-1 to the right

## CC(C)C[C@@H]1NC(=O)[C@@H](C(C)C)NC(=O)[C@@H]2CCCN2C(=O)[C@@H](CC(=O)O)NC(=O)[C@@H](Cc2c[nH]c3ccccc23)NC1=O [Example 15, cyclo(-DTrp-DAsp-Pro-DVal-Leu-)] (cyclo(L[dW][dD]P[dV]))
[1]
  inhibition at 1.1 µM: 85%
[2]; compound 2 μM
  effect on the maximum response to endothelin-1: did not affect the maximum response
  shift of the concentration-response curve of endothelin-1: remarkably shifted the concentration-response curves of endothelin-1 to the right
[3]
  effect on the endotoxin-induced body temperature lowering: showed remarkable antagonistic activities against the endotoxin-induced body temperature lowering effect
[4]; compound 2 μM
  effect on the maximum response to endothelin-1: did not affect the maximum response
  shift of the concentration-response curve for endothelin-1: remarkably shifted the concentration-response curves for endothelin-1 to the right
[5]; [8]
  Survived number/number of the tested animals: 10/10
  survival rate (%): 100%
[5]; [9]
  Survived number/number of the tested animals: 6/10
  survival rate (%): 60%
[5]; [10]
  Survived number/number of the tested animals: five cases out of ten cases survived and 5/10
  survival rate (%): 50%
[5]; endotoxin 100 mg/kg i.v., compound 100 mg/kg i.p. 30 minutes before and after endotoxin
  effect on endotoxin-induced mortality: a distinct reduction in the mortality was observed

## cyclo(-DTro-DCys(O3 Na)-Pro-DVal-Leu-) [Example 3]
[1]
  125I-endothelin-1 binding inhibition, Inhibition (%): 85%
[2]; compound 2 μM
  effect on the maximum response to endothelin-1: did not affect the maximum response
  shift of the concentration-response curve of endothelin-1: remarkably shifted the concentration-response curves of endothelin-1 to the right
[6]
  effect on the maximum response to endothelin-1: did not affect the maximum response
[6]; added 20 minutes prior to endothelin-1
  shift of the concentration-response curve for endothelin-1: remarkably shifted the concentration-response curve for endothelin-1 to the right
[4]; compound 6 μM
  effect on the maximum response to endothelin-1: did not affect the maximum response
  shift of the concentration-response curve for endothelin-1: remarkably shifted the concentration-response curves for endothelin-1 to the right
[7]; compound 1 μM
  effect on the maximum response to endothelin-1 (perfusion pressure): did not affect the maximum response
[7]; compound 1 μM in the perfusate from 20 minutes prior to endothelin-1, Langendorff
  shift of the concentration-response curve for endothelin-1 (perfusion pressure): moved the concentration-response curve for endothelin-1 to the right
